Test results published in paper PMC7476565 (Antiviral Research, 2020).

What was measured:
FIPV 3CL^pro = FIPV 3CL^pro (Feline coronavirus, UniProt Q98VG9); assay: FRET protease inhibition assay, FIPV 3CLpro; format: biochemical, feline infectious peritonitis virus (FIPV) strain 79-1146
FIPV [1] = assay: microbe, parasite or virus in culture; format: cell-based, feline infectious peritonitis virus (FIPV) strain 79-1146; settings: for EC50: Alphacoronavirus 1, CRFK, 2 h, read-out: Prophylaxis treatment EC50, IPMA; for inhibition of the cytopathic effect (in words): FIPV in CRFK cells, all examined conditions
[2] = In vitro cytotoxicity MTS assay on CRFK cells; format: cell-based, feline; settings: cat, 50% cytotoxic concentration CC50, MTS assay
FIPV [3] = assay: FIPV RNA quantification by RT-qPCR in CRFK cells; format: cell-based, feline infectious peritonitis virus (FIPV) strain 79-1146; settings: with higher concentration
CRFK cells = assay: In vitro cytotoxicity MTS assay on CRFK cells; format: cell-based, feline; settings: read-out: 50% cytotoxic concentration CC50, MTS assay
FIPV [4] = settings: CRFK cells; CPE still observed; ref Weiss and Oostrom-Ram, 1989; cited from earlier work
TGEV = assay: Antiviral activity against TGEV replication in SK6 cells

Chain of FIPV 3CL^pro (Q98VG9 2904-3205 limits assumed): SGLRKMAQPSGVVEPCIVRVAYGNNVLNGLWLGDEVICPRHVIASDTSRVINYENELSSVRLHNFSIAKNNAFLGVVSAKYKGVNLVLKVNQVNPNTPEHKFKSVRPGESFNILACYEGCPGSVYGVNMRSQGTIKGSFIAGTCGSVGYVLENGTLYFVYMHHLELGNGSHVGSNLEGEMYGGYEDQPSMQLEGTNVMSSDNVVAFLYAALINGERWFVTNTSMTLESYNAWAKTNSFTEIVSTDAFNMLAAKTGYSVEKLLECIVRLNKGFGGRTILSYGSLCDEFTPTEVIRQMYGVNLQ

Compound	Ki (FIPV 3CL^pro)	EC50 (FIPV [1])	inhibition of the cytopathic effect (in words) (FIPV [1])	CC50 [2]	copy numbers of FIPV RNAs / FIPV replication (RT-qPCR) (FIPV [3])	CC50 (CRFK cells)	Inhibitory dose for FIPV (FIPV [4])	antiviral effect in TGEV cell-based assay (in words) (TGEV)
O=C(C=Cc1ccc2ccccc2n1)c1cc(Cl)ccc1O [NSC71097, 1-(5-chloro-2-hydroxyphenyl)-3-(2-quinolinyl)-2-propen-1-one]	15.2 ± 1.76 µM	1.99 ± 0.3 µM	strongly inhibit	68.5 ± 4.82 µM	reduced replication	–	–	–
N#CC1(C#N)C2C=CC(c3coc4cccc2c34)C1(C#N)C#N (stereo not drawn) [NSC629301, 3,6-dihydro-3,6-ethanocyclohepta (cd) (1) benzofuran-10,10,11,11-tetracarbonitrile]	9.39 ± 0.53 µM	6.11 ± 1.9 µM	strongly inhibit	28.1 ± 5.19 µM	reduced replication	23.2 ± 5.19 µM	–	–
Cc1cccc(C)c1OCC(=O)N[C@@H](Cc1ccccc1)[C@@H](O)C[C@H](Cc1ccccc1)NC(=O)[C@H](C(C)C)N1CCCNC1=O [Lopinavir, reference compound]	–	33.7 ± 1.53 µM	–	> 100 µM	–	–	–	–
CC(C)C[C@H](NC(=O)OCc1ccccc1)C(=O)N[C@@H](CC1CCNC1=O)C(O)S(=O)(=O)O (stereo partly drawn) [GC376, reference compound]	–	–	–	–	–	> 200 µM	–	–
NC(=O)c1ncn([C@@H]2O[C@H](CO)[C@@H](O)[C@H]2O)n1 [Ribavirin, reference compound]	–	> 200 µM	–	> 500 µM	–	–	50 to 100 µg/mL	–
O=C(Nc1ccc(F)cc1)Oc1ccc[nH]c1=O [NSC282187, Carbamic acid, (4-fluorophenyl)-, 1,2-dihydro-2-oxo-3-pyridinyl ester]	2.04 ± 0.08 µM	> 200 µM	–	510.7 ± 0.13 µM	–	–	–	did not show an active antiviral effect
